Measurements reported in patent US12409112B2, “Pressurized nanoemulsion” (Biofrontera Bioscience GmbH, priority 2023, dated 2025).

Assays:
[1] = TC content over storage time in BF220 with PX=4%; assay type: physicochemical; details: BF220 with PX=4% and 0.1% TC
Protocol: Nanoemulsion formulations BF220 TC=0.1% glass and BF220 TC=0.1% foam were prepared as described in Example 6. The nanoemulsion formulations were stored at 2-8° C. The content of TC was determined at 0 (starting point) and various time points during the 36 months storage period.

[2] = cited from earlier work
[3] = room temperature; cited from earlier work
[4] = ALA content over storage time in BF200 with PX=2%; assay type: physicochemical; details: BF200 with PX=2% and 3% ALA
Protocol: Nanoemulsion formulations BF200 PX=2% glass and BF200 PX=2% foam were prepared as described in Example 5. The nanoemulsion formulations were stored at 25° C. and 2-8° C. The content of ALA was determined at 0 (starting point) and various time points during the 36 months storage period.

**Q.** For `C=CC[C@@H]1/C=C(\C)C[C@H](C)C[C@H](OC)[C@H]2O[C@@](O)(C(=O)C(=O)N3CCCC[C@H]3C(=O)O[C@H](/C(C)=C/[C@@H]3CC[C@@H](O)[C@H](OC)C3)[C@H](C)[C@@H](O)CC1=O)[C@H](C)C[C@@H]2OC` [TC, Tacrolimus], which “Preservation of API content, pressurized cans versus conventional storing units (glass vials)” value ([1]; 2-8° C.) is on record?
**A.** Its value is “better”.

**Q.** And the TC content ([1]; after 36 months storage at 2-8° C.)?
**A.** The TC content was “at least 90%”.

**Q.** And the “octanol-water partition coefficient (log P)” value [2]?
**A.** Its value is over 3.

**Q.** And the “Stability in aqueous formulations” value [3]?
**A.** Its value is “approx. 90 days”.

**Q.** Which “Preservation of API content, pressurized cans versus conventional storing units (glass vials)” value ([4]; 25° C. and 2-8° C., all conditions) does the source give for `NCC(=O)CCC(=O)O` [ALA, 5-aminolevulinic acid] here?
**A.** The value was “better”.

**Q.** What about the ALA content ([4]; after 36 months storage at 2-25° C.) of the same molecule?
**A.** The ALA content was “at least 90%”.
